Where two headings read alike, the source gives them in different places.

From patent publication US20130217735A1, “FUNGICIDAL COMPOSITIONS AND METHODS OF USE” (Agri-Food and BioSciences Institute, priority 2010, published 2013) come the findings set out here.

For test [1], the system named is Phytophthora erythroseptica. As to the kind of experiment: Example 7 sensitivity testing of potato tuber pathogens to thiabendazole derivatives. As to conditions: for Inhibition (%) of mycelial growth / inhibition at 25 µM / inhibition at 250 µM: Trial B; for inhibition at 25 µM / inhibition at 250 µM: Phytophthora erythroseptica, read-out: Inhibition (%) of mycelial growth. In kind it is cell-based. How it is done: (§1) In vitro tests of the IL thiabendazolium docusate were performed in comparison to the neutral fungicide using selected isolates of Fusarium spp., the cause of potato dry rot. F. coeruleum and F. culmorum are sensitive to thiabendazole whereas isolates of F. sambucinum are frequently resistant. Isolates of Phoma spp., the cause of gangrene, and Phytophthora erythroseptica, the cause of pink rot, were also tested. All except F. sambucinum ex SASA were isolated in a laboratory. F. sambucinum ex SASA was supplied by SASA (Science and Advice for Scottish Agriculture, Roddinglaw Road, Edinburgh, EH12 9F, UK).
(§2) In each test three replicate plates for each organism per concentration were used and tests were repeated at least once.

For test [2], the system named is F. coeruleum. Described as above. In kind it is cell-based. The following applies: Trial B; for inhibition at 25 µM / inhibition at 250 µM: read-out: Inhibition (%) of mycelial growth. How it is done: as §1, §2
For a further test, the system named is F. sambucinum. The description is as above. In kind it is cell-based. The following applies: Trial B; for inhibition at 25 µM / inhibition at 250 µM: Fusarium sambucinum, read-out: Inhibition (%) of mycelial growth. How it is done: as §1, §2
The next test relates to Phoma foveata. Described as above. In kind it is cell-based. As to conditions: isolate Phoma foveata BL2 05 T3, Trial B. How it is done: as §1, §2
Another test deals with Phoma exigua. The description is as above. In kind it is cell-based. As to conditions: isolate Phoma exigua 9.1, Trial B. How it is done:
as §1, §2

Test [3] relates to F. culmorum. The test is described as above. The test is classed as cell-based. As to conditions: isolate F. culmorum P13, Trial B. The method, then: as §1, §2
The test system of another test is P. exigua. Nature of the test: Example 5 agar plate mycelial growth test of TBZ derivatives. As to conditions: Trial A; for Inhibition (%) of mycelial growth: isolate P. exigua 9.1.
The subject of the next test is P. foveata. The test is described as above. As to conditions: Trial A; for Inhibition (%) of mycelial growth: isolate P. foveata BL2 05 T3.
A further test has as its system P. erythroseptica. Described as above. The following applies: Trial A; for Inhibition (%) of mycelial growth: isolate P. erythroseptica BL2/08 P31.
The subject of a further test is F. sulphureum. The description is as above. The following applies: 5-7 days, TBZ docusate Trial A; for Inhibition (%) of mycelial growth: isolate F. sulphureum ex SASA.
For test [4], the system named is F. coeruleum. The test is described as above. As to conditions: Trial A; for Inhibition (%) of mycelial growth: isolate F. coeruleum ex B7/06 T8.
Test [5] relates to F. culmorum. The test is described as above. The test is classed as cell-based. The following applies: isolate F. culmorum P13, Trial A.
Where [6] appears, read: isolate Phytophthora erythroseptica BL2/08 P31, 25 μM in agar.
The mark [7] stands for this setting: isolate Phytophthora erythroseptica BL2/08 P31, 250 μM in agar.
[8] abbreviates: isolate Phytophthora erythroseptica Rooster Eire, 25 μM in agar.
[9] abbreviates: isolate Phytophthora erythroseptica Rooster Eire, 250 μM in agar.
Setting [10] is: isolate F. coeruleum ex B7/06 T8, 25 μM in agar.
The mark [11] stands for this setting: isolate F. coeruleum ex B7/06 T8, 250 μM in agar.
[12] abbreviates: isolate F. coeruleum ex B16/08 P31, 25 μM in agar.
The mark [13] stands for this setting: isolate F. coeruleum ex B16/08 P31, 250 μM in agar.
Where [14] appears, read: isolate F. sambucinum L'gall 11, 25 μM in agar.
The mark [15] stands for this setting: isolate F. sambucinum L'gall 11, 250 μM in agar.
The mark [16] stands for this setting: isolate F. sambucinum L'gall 53, 25 μM in agar.
Setting [17] is: isolate F. sambucinum L'gall 53, 250 μM in agar.
The mark [18] stands for this setting: isolate F. sambucinum ex SASA, 25 μM in agar.
The mark [19] stands for this setting: isolate F. sambucinum ex SASA, 250 μM in agar, vs 1% ethanol control.

Description for F. sulphureum: (§3) Both TBZ docusate and TBZ stearate were tested at final concentrations of 250 μm and 25 μm in agar. To prepare the TBZ docusate stock solution for 250 μm, 0.155 g of TBZ docusate prepared according to Trial A was added to a 10 mL volumetric flask and was dissolved in 10 mL of ethanol. The solution was mixed thoroughly. To prepare the TBZ docusate stock solution for 25 μm, 1 ml of the above stock solution was pipetted into a second 10 mL flask and 10 mL ethanol was added. The solution was mixed thoroughly. To prepare the TBZ stearate stock solution for 250 μm, 0.121 g of TBZ stearate was added to a 10 mL volumetric flask and was dissolved in 10 mL ethanol. The solution was mixed thoroughly. To prepare the TBZ stearate stock solution for 25 μm, 1 mL of the 250 μm TBZ stearate stock solution was pipetted into a second 10 mL flask and 10 mL ethanol was added. The solution was mixed thoroughly.
(§4) The agar was prepared and autoclaved. Potato dextrose agar (PDA) was used for the Fusarium species and Phytophthora erythroseptica and malt agar was used for the Phoma species. The agar was allowed to cool to 50° C. Each of the stock solutions was added to the agar at the rate of 10 mL stock solution per liter of agar to give the two final concentrations, for both TBZ stearate and docusate, in agar. Also prepared were a 1% ethanol control (10 mL per liter of agar) and an untreated agar as a second control. The plates were prepared in triplicate for each concentration.
(§5) For each pathogen isolate tested, 3 plates of 250 μm/1, 3 plates of 25 μm/1, 3 plates of 1% ethanol, and 3 plates of untreated agar were inoculated using an agar plug cut with a no. 3 cork borer from the margin of an actively-growing culture on agar. The plates were incubated at an appropriate temperature (usually 18-20° C.) in darkness. The growth rate was monitored and assessed after 5-7 days. The growth was assessed by measuring colony diameters minus plug (two measurements at right-angles) per plate. The percent reduction was calculated with respect to the control.
(§6) Pure thiabendazole (TBZ; 0.5 g) obtained from MSD Agvet (Rahway, N.J.) was dissolved in water (10 mL) by adding the minimum required volume (c. 0.5 mL) of hypophosphorous acid and heating gently with stirring, then made up to 100 mL with water to give a stock solution (25 mM). TBZ docusate (0.155 g) or TBZ stearate (0.121 g) was dissolved in ethanol (100 ml) to give stock solutions (25 mM). A ten-fold dilution of each of these stock solutions was prepared (in water for TBZ and in ethanol for TBZ docusate and stearate). […] In addition, agar with 1% v/v ethanol and unamended agar was prepared (ethanol and unamended controls). The agar was poured into Petri plates (9 cm) and allowed to set.
(§7) Isolates of the appropriate potato tuber pathogens were grown on PDA for Fusarium spp. and Phytophthora erythroseptica or on MA for Phoma spp. Each isolate to be tested was inoculated onto three replicate plates of the two concentrations of each compound and onto ethanol and unamended agar controls using plugs (6 mm diameter) cut from the margins of actively growing cultures. Plates were incubated in darkness at 20° C. and mycelial growth measured (two measurements at right-angles for each plate) after 5-7 days (depending on the growth rates).
Description for P. erythroseptica: as §3, §4, §5, §6, §7
Description for P. exigua: as §3, §4, §5, §6, §7
Description for P. foveata: as §3, §4, §5, §6, §7

For `CCCCCCCCCCCCCCCCCC(=O)O.c1ccc2[nH]c(-c3cscn3)nc2c1` [TBZ stearate, thiabendazolium stearate], the “activity against P. erythroseptica compared with thiabendazole alone” value in test [1] (in words, Table 5) is “did not enhance the activity”. Besides, the “Inhibition (%) of mycelial growth” value was 10% in [1] (setting [6]); 54% in test [1] (setting [7]); 11% in test [1] (setting [8]); 34% in [1] (setting [9]); 99% in the test on F. coeruleum [2] (setting [10]); 99% with F. coeruleum [2] (setting [11]). Besides, the “Inhibition (%) of mycelial growth” value is given as 100% with F. coeruleum [2] (setting [12]); 100% in the test with F. coeruleum [2] (setting [13]); 10% with F. sambucinum (setting [14]); 82% in the test with F. sambucinum (setting [15]); 20% with F. sambucinum (setting [16]); 82% in the test with F. sambucinum (setting [17]). Besides, the “Inhibition (%) of mycelial growth” value in the test with F. sambucinum (setting [18]) stood at 24%; in the test with F. sambucinum (setting [19]), 89%; in the test on Phoma foveata (25 μM in agar) it was 97%; in the test with Phoma foveata (250 μM in agar), 99%; with Phoma exigua (25 μM in agar), 95%; in the test with Phoma exigua (250 μM in agar), 99%. In addition, the “Inhibition (%) of mycelial growth” value in the test with F. culmorum [3] (25 μM in agar) and in the test on F. culmorum [3] (250 μM in agar) was 100% each time.
As to `c1ccc2[nH]c(-c3cscn3)nc2c1` [TBZ stearate, thiabendazolium stearate], the “Inhibition (%) of mycelial growth” value is 93% in the test with P. exigua (25 μM in agar); 98% in the test with P. exigua (250 μM in agar); 96% in the test on P. foveata (25 μM in agar); 99% in the test with P. foveata (250 μM in agar); 2% in the test on P. erythroseptica (25 μM in agar); 69% with P. erythroseptica (250 μM in agar). Besides, the “Inhibition (%) of mycelial growth” value is 25% in the test on F. sulphureum (25 μM in agar); 90% in the test on F. sulphureum (250 μM in agar); 98% with F. coeruleum [4] (25 μM in agar); 98% in the test on F. coeruleum [4] (250 μM in agar); 100% in the test on F. culmorum [5] (25 μM in agar); 100% with F. culmorum [5] (250 μM in agar).
Take `c1ccc2[nH]c(-c3cscn3)nc2c1` [TBZ, thiabendazole, reference compound]: the inhibition at 25 µM in the test on P. exigua (Boeremia inoxydabilis, read-out: Inhibition (%) of mycelial growth, isolate P. exigua 9.1, 25 μM in agar) was found to be 92%; in the test on P. foveata (Boeremia foveata, read-out: Inhibition (%) of mycelial growth, isolate P. foveata BL2 05 T3, 25 μM in agar), 98%; in test [1] (setting [6]), 4%; in test [1] (setting [8]), 8%; with F. coeruleum [2] (setting [10]), 99%; with F. coeruleum [2] (setting [12]), 100%. Further, the inhibition at 25 µM was found to be 8% with F. sambucinum (setting [14]); 19% in the test on F. sambucinum (setting [16]); 22% with F. sambucinum (setting [18]); 98% in the test with Phoma foveata (Boeremia foveata, 25 μM in agar, read-out: Inhibition (%) of mycelial growth); 95% in the test with Phoma exigua (25 μM in agar, read-out: Inhibition (%) of mycelial growth); 100% in the test on F. culmorum [3] (Fusarium culmorum, 25 μM in agar, read-out: Inhibition (%) of mycelial growth). In addition, the inhibition at 25 µM with F. sulphureum (read-out: Inhibition (%) of mycelial growth, isolate F. sulphureum ex SASA, 25 μM in agar) came to 17%; in the test with F. coeruleum [4] (read-out: Inhibition (%) of mycelial growth, isolate F. coeruleum ex B7/06 T8, 25 μM in agar), 99%; with F. culmorum [5] (Fusarium culmorum, 25 μM in agar) it was 100%. Also, the inhibition at 250 µM with P. exigua (Boeremia inoxydabilis, read-out: Inhibition (%) of mycelial growth, isolate P. exigua 9.1, 250 μM in agar) came to 100%; with P. foveata (Boeremia foveata, read-out: Inhibition (%) of mycelial growth, isolate P. foveata BL2 05 T3, 250 μM in agar) it was 100%; in test [1] (setting [7]), 51%; in test [1] (setting [9]) it was 31%; with F. coeruleum [2] (setting [11]), 99%; in the test on F. coeruleum [2] (setting [13]), 100%. Besides, the inhibition at 250 µM with F. sambucinum (setting [15]) is 76%; in the test on F. sambucinum (setting [17]), 93%; with F. sambucinum (setting [19]), 89%; with Phoma foveata (Boeremia foveata, 250 μM in agar, read-out: Inhibition (%) of mycelial growth), 100%; in the test with Phoma exigua (250 μM in agar, read-out: Inhibition (%) of mycelial growth), 100%; in the test on F. culmorum [3] (Fusarium culmorum, 250 μM in agar, read-out: Inhibition (%) of mycelial growth), 100%. In addition, the inhibition at 250 µM in the test on P. erythroseptica (Phytophthora erythroseptica, read-out: Inhibition (%) of mycelial growth, isolate P. erythroseptica BL2/08 P31, 250 μM in agar) amounted to 76%; with F. sulphureum (read-out: Inhibition (%) of mycelial growth, isolate F. sulphureum ex SASA, 250 μM in agar), 87%; in the test on F. coeruleum [4] (read-out: Inhibition (%) of mycelial growth, isolate F. coeruleum ex B7/06 T8, 250 μM in agar) it was 98%; with F. culmorum [5] (Fusarium culmorum, 250 μM in agar) it was 100%. Besides, in the test with P. erythroseptica (25 μM in agar), the “Inhibition (%) of mycelial growth” value is 9%.
